Assay results from patent US12577245B2, “Sulfonyl benzamide derivatives as Bcl-2 inhibitors” (ASCENTAGE PHARMA (SUZHOU) CO., LTD., priority 2021, dated 2026).

The compounds below were run against Bcl-2 G101V (Homo sapiens, UniProt P10415, G101V) (assay: Bcl-2 G101V inhibition, fluorescence polarization (Flu-BIM tracer) binding assay). Conditions: FP; 20 nM Bcl2, 5 nM Flu-BIM, 1 h incubation; read-out: Bcl-2 G101V (FP).

Compound | IC50
CC(C)c1csc(C2=C(CN3CCN(c4ccc(C(=O)NS(=O)(=O)c5ccc(NC[C@H]6COCCO6)c([N+](=O)[O-])c5)c(Oc5cnc6[nH]ccc6c5)c4)CC3)CCC(C)(C)C2)c1 [Example 10, (S)—N-((4-(((1,4-dioxan-2-yl)methyl)amino)-3-nitrophenyl)sulfonyl)-2-((1H-pyrrolo[2,3-b]pyridin-5-yl)oxy)-4-(4-((2-(4-isopropylthiophen-2-yl)-4,4-dimethylcyclohex-1-en-1-yl)methyl)piperazin-1-yl)benzamide] | 27.7 nM
C[C@@H]1CN(Cc2csc(C3=C(CN4CCN(c5ccc(C(=O)NS(=O)(=O)c6ccc(NC[C@H]7COCCO7)c([N+](=O)[O-])c6)c(Oc6cnc7[nH]ccc7c6)c5)CC4)CCC(C)(C)C3)c2)C[C@H](C)N1C [Example 29, N-((4-((((S)-1,4-dioxan-2-yl)methyl)amino)-3-nitrophenyl)sulfonyl)-2-((1H-pyrrolo[2,3-b]pyridin-5-yl)oxy)-4-(4-((4,4-dimethyl-2-(4-(((3S,5R)-3,4,5-trimethylpiperazin-1-yl)methyl)thiophen-2-yl)cyclohex-1-en-1-yl)methyl)piperazin-1-yl)benzamide] | 71.3 nM
CC1(C)CCC(CN2CCN(c3ccc(C(=O)NS(=O)(=O)c4ccc(NC[C@H]5COCCO5)c([N+](=O)[O-])c4)c(Oc4cnc5[nH]ccc5c4)c3)CC2)=C(c2cc(-c3ccc(Cl)cc3)cs2)C1 [Example 38, (S)—N-((4-(((1,4-dioxan-2-yl)methyl)amino)-3-nitrophenyl)sulfonyl)-2-((1H-pyrrolo[2,3-b]pyridin-5-yl)oxy)-4-(4-((2-(4-(4-chlorophenyl)thiophen-2-yl)-4,4-dimethylcyclohex-1-en-1-yl)methyl)piperazin-1-yl)benzamide] | 35.4 nM
CC1(C)CCC(CN2CCN(c3ccc(C(=O)NS(=O)(=O)c4ccc(NCC5CCOCC5)c([N+](=O)[O-])c4)c(Oc4cnc5[nH]ccc5c4)c3)CC2)=C(c2csc(CN3CCOCC3)c2)C1 [Example 21, 2-((1H-pyrrolo[2,3-b]pyridin-5-yl)oxy)-4-(4-((4,4-dimethyl-2-(5-(morpholinomethyl)thiophen-3-yl)cyclohex-1-en-1-yl)methyl)piperazin-1-yl)-N-((3-nitro-4-(((tetrahydro-2H-pyran-4-yl)methyl)amino)phenyl)sulfonyl)benzamide] | 64.2 nM
CC1(C)CCC(CN2CCN(c3ccc(C(=O)NS(=O)(=O)c4ccc(NC[C@H]5CC[C@](C)(O)CC5)c([N+](=O)[O-])c4)c(Oc4cnc5[nH]ccc5c4)c3)CC2)=C(c2cc(-c3cc(F)c(F)cc3F)cs2)C1 [Example 53, 2-((1H-pyrrolo[2,3-b]pyridin-5-yl)oxy)-4-(4-((4,4-dimethyl-2-(4-(2,4,5-trifluorophenyl)thiophen-2-yl)cyclohex-1-en-1-yl)methyl)piperazin-1-yl)-N-((4-((((1r,4r)-4-hydroxy-4-methylcyclohexyl)methyl)amino)-3-nitrophenyl)sulfonyl)benzamide] | 36.6 nM
CC1(C)CCC(CN2CCN(c3ccc(C(=O)NS(=O)(=O)c4ccc(NC[C@H]5COCCO5)c([N+](=O)[O-])c4)c(Oc4cnc5[nH]ccc5c4)c3)CC2)=C(c2cc(-c3ccc(Cl)cc3F)cs2)C1 [Example 44, (S)—N-((4-(((1,4-dioxan-2-yl)methyl)amino)-3-nitrophenyl)sulfonyl)-2-((1H-pyrrolo[2,3-b]pyridin-5-yl)oxy)-4-(4-((2-(4-(4-chloro-2-fluorophenyl)thiophen-2-yl)-4,4-dimethylcyclohex-1-en-1-yl)methyl)piperazin-1-yl)benzamide] | 46.3 nM
CC1(C)CCC(CN2CCN(c3ccc(C(=O)NS(=O)(=O)c4ccc(NC[C@H]5CC[C@](C)(O)CC5)c([N+](=O)[O-])c4)c(Oc4cnc5[nH]ccc5c4)c3)CC2)=C(c2cc(-c3ccc(C(O)(C(F)(F)F)C(F)(F)F)cc3)cs2)C1 [Example 60, 2-((1H-pyrrolo[2,3-b]pyridin-5-yl)oxy)-4-(4-((2-(4-(4-(1,1,1,3,3,3-hexafluoro-2-hydroxypropan-2-yl)phenyl)thiophen-2-yl)-4,4-dimethylcyclohex-1-en-1-yl)methyl)piperazin-1-yl)-N-((4-((((1r,4r)-4-hydroxy-4-methylcyclohexyl)methyl)amino)-3-nitrophenyl)sulfonyl)benzamide] | 34.1 nM
CC1(C)CCC(CN2CCN(c3ccc(C(=O)NS(=O)(=O)c4ccc(NC[C@H]5CC[C@](C)(O)CC5)c([N+](=O)[O-])c4)c(Oc4cnc5[nH]ccc5c4)c3)CC2)=C(c2cc3c(s2)CCN(c2ccc(F)cc2)C3)C1 [Example 16, 2-((1H-pyrrolo[2,3-b]pyridin-5-yl)oxy)-4-(4-((2-(5-(4-fluorophenyl)-4,5,6,7-tetrahydrothieno[3,2-c]pyridin-2-yl)-4,4-dimethylcyclohex-1-en-1-yl)methyl)piperazin-1-yl)-N-((4-((((1r,4r)-4-hydroxy-4-methylcyclohexyl)methyl)amino)-3-nitrophenyl)sulfonyl)benzamide] | 94.7 nM
CC(=O)NC(C)(C)c1cc(F)c(-c2csc(C3=C(CN4CCN(c5ccc(C(=O)NS(=O)(=O)c6ccc(NC[C@H]7CC[C@](C)(O)CC7)c([N+](=O)[O-])c6)c(Oc6cnc7[nH]ccc7c6)c5)CC4)CCC(C)(C)C3)c2)c(F)c1 [Example 80, 2-((1H-pyrrolo[2,3-b]pyridin-5-yl)oxy)-4-(4-((2-(4-(4-(2-acetamidopropan-2-yl)-2,6-difluorophenyl)thiophen-2-yl)-4,4-dimethylcyclohex-1-en-1-yl)methyl)piperazin-1-yl)-N-((4-((((1r,4r)-4-hydroxy-4-methylcyclohexyl)methyl)amino)-3-nitrophenyl)sulfonyl)benzamide] | 23.4 nM
CC1(C)CCC(CN2CCN(c3ccc(C(=O)NS(=O)(=O)c4ccc(NC[C@H]5CC[C@](C)(O)CC5)c([N+](=O)[O-])c4)c(Oc4cnc5[nH]ccc5c4)c3)CC2)=C(c2cc(-c3c(F)cc(C(C)(O)C4CC4)cc3F)cs2)C1 (stereo partly shown) [Example 69, 2-((1H-pyrrolo[2,3-b]pyridin-5-yl)oxy)-4-(4-((2-(4-(4-(1-cyclopropyl-1-hydroxyethyl)-2,6-difluorophenyl)thiophen-2-yl)-4,4-dimethylcyclohex-1-en-1-yl)methyl)piperazin-1-yl)-N-((4-((((1r,4r)-4-hydroxy-4-methylcyclohexyl)methyl)amino)-3-nitrophenyl)sulfonyl)benzamide] | 29 nM
CC1(C)CCC(CN2CCN(c3ccc(C(=O)NS(=O)(=O)c4ccc(NC[C@H]5CC[C@](C)(O)CC5)c([N+](=O)[O-])c4)c(Oc4cnc5[nH]ccc5c4)c3)CC2)=C(c2cc(-c3cc(F)cc(C#N)c3)cs2)C1 [Example 55, 2-((1H-pyrrolo[2,3-b]pyridin-5-yl)oxy)-4-(4-((2-(4-(3-cyano-5-fluorophenyl)thiophen-2-yl)-4,4-dimethylcyclohex-1-en-1-yl)methyl)piperazin-1-yl)-N-((4-((((1r,4r)-4-hydroxy-4-methylcyclohexyl)methyl)amino)-3-nitrophenyl)sulfonyl)benzamide] | 47.5 nM
CC1(C)CCC(CN2CCN(c3ccc(C(=O)NS(=O)(=O)c4ccc(NC[C@H]5COCCO5)c([N+](=O)[O-])c4)c(Oc4cnc5[nH]ccc5c4)c3)CC2)=C(c2cc(-c3ccc(C(F)F)cc3)cs2)C1 [Example 48, (S)—N-((4-(((1,4-dioxan-2-yl)methyl)amino)-3-nitrophenyl)sulfonyl)-2-((1H-pyrrolo[2,3-b]pyridin-5-yl)oxy)-4-(4-((2-(4-(4-(difluoromethyl)phenyl)thiophen-2-yl)-4,4-dimethylcyclohex-1-en-1-yl)methyl)piperazin-1-yl)benzamide] | 36.7 nM
CC1(C)CCC(CN2CCN(c3ccc(C(=O)NS(=O)(=O)c4ccc(NC[C@H]5COCCO5)c([N+](=O)[O-])c4)c(Oc4cnc5[nH]ccc5c4)c3)CC2)=C(c2cc(CN3CCOCC3)cs2)C1 [Example 22, (S)—N-((4-(((1,4-dioxan-2-yl)methyl)amino)-3-nitrophenyl)sulfonyl)-2-((1H-pyrrolo[2,3-b]pyridin-5-yl)oxy)-4-(4-((4,4-dimethyl-2-(4-(morpholinomethyl)thiophen-2-yl)cyclohex-1-en-1-yl)methyl)piperazin-1-yl)benzamide] | 42.8 nM
CC1(C)CCC(CN2CCN(c3ccc(C(=O)NS(=O)(=O)c4ccc(NC[C@H]5CC[C@](C)(O)CC5)c([N+](=O)[O-])c4)c(Oc4cnc5[nH]ccc5c4)c3)CC2)=C(c2cc(-c3ccc(F)cc3F)cs2)C1 [Example 43, 2-((1H-pyrrolo[2,3-b]pyridin-5-yl)oxy)-4-(4-((2-(4-(2,4-difluorophenyl)thiophen-2-yl)-4,4-dimethylcyclohex-1-en-1-yl)methyl)piperazin-1-yl)-N-((4-((((1r,4r)-4-hydroxy-4-methylcyclohexyl)methyl)amino)-3-nitrophenyl)sulfonyl)benzamide] | 33.7 nM
CC1(C)CCC(CN2CCN(c3ccc(C(=O)NS(=O)(=O)c4ccc(NC[C@H]5COCCO5)c([N+](=O)[O-])c4)c(Oc4cnc5[nH]ccc5c4)c3)CC2)=C(c2cc(CN3CCN4CCOC[C@H]4C3)cs2)C1 [Example 30, N-((4-((((S)-1,4-dioxan-2-yl)methyl)amino)-3-nitrophenyl)sulfonyl)-2-((1H-pyrrolo[2,3-b]pyridin-5-yl)oxy)-4-(4-((2-(4-(((R)-hexahydropyrazino[2,1-c][1,4]oxazin-8(1H)-yl)methyl)thiophen-2-yl)-4,4-dimethylcyclohex-1-en-1-yl)methyl)piperazin-1-yl)benzamide] | 66 nM
Cc1sccc1C1=C(CN2CCN(c3ccc(C(=O)NS(=O)(=O)c4ccc(NCC5CCOCC5)c([N+](=O)[O-])c4)c(Oc4cnc5[nH]ccc5c4)c3)CC2)CCC(C)(C)C1 [Example 1, 2-((1H-pyrrolo[2,3-b]pyridin-5-yl)oxy)-4-(4-((4,4-dimethyl-2-(2-methylthiophen-3-yl)cyclohex-1-en-1-yl)methyl)piperazin-1-yl)-N-((3-nitro-4-(((tetrahydro-2H-pyran-4-yl)methyl)amino)phenyl)sulfonyl)benzamide] | 32.7 nM
